Reference: patent US9670266B2, “Method and composition for crystallizing G protein-coupled receptors” (The Board of Trustees of the Leland Stanford Junior …, priority 2007, dated 2017)
Where two headings read alike, the source gives them in different places.

How the values were obtained:
β2AR-T4L [1] = type: binding
β2AR-T4L [2] = settings: for λmax ± SD for β2AR-T4L: bimane emission, excitation 350 nm, 15 min incubation with saturating ligand; for ligand-induced change of bimane fluorescence / Intensity at λmax Ligand/Intensity at λmax none: β2AR-T4L; for Intensity at λmax Ligand/Intensity at λmax none: 15 min incubation with ligand
wild-type β2AR [3] = molecular target: wild-type β2AR (Homo sapiens, UniProt P07550); experiment: Saturation binding of [^3H]DHA to membranes from Sf9 cells expressing wild-type β2AR
wild-type β2AR [4] = molecular target: wild-type β2AR (Homo sapiens, UniProt P07550, E27Q/G16R/N187E); experiment: as above; settings: read-out: Kd ± SE
β2AR-T4L [5] = molecular target: β2AR-T4L (Homo sapiens, UniProt P07550, E27Q/G16R/N187E); experiment: Saturation binding of [^3H]DHA to membranes from Sf9 cells expressing β2AR-T4L
Experimental: Membrane preparation from baculovirus-infected Sf9 cells was performed as described previously (G. Swaminath, J. Steenhuis, B. Kobilka, T. W. Lee, Mol Pharmacol 61, 65 (2002)). For each binding reaction, membranes containing 0.7 μg total membrane protein were used. Saturation binding of [^3H]-dihydroalprenolol (DHA) was measured by incubating membranes resuspended in 500 μl binding buffer (75 mM Tris, 12.5 mM MgCl2, 1 mM EDTA, pH 7.4, supplemented with 0.4 mg/ml BSA) with 12 different concentrations of [^3H]DHA (Perkin Elmer) between 20 pM and 10 nM. After 1 h incubation with shaking at 230 rpm, membranes were filtered from the binding reactions with a Brandel harvester, washed with binding buffer, and measured for bound [^3H]DHA with a Beckman LS6000 scintillation counter. […] For competition binding, membranes resuspended in 500 μl binding buffer were incubated with 0.5 nM [^3H]DHA plus increasing concentrations of the competing ligand (all compounds were purchased from Sigma). […] Each data point in the curves in FIGS. 4A and 10 represents the mean of three separate experiments, each done in triplicate. Binding data were analyzed by nonlinear regression analysis using Graphpad Prism.

[6] = molecular target: β2AR Val114^3.33 to alanine mutant (Homo sapiens, UniProt P07550, V114A); settings: cited from earlier work

## CC(C)NC[C@H](O)c1ccc(O)c(O)c1 [(−)-isoproteronol, (−)-isoproterenol]
β2AR-T4L [1]; competition binding
  affinity of β2AR-T4L relative to wild-type β2AR: two to three-fold higher
β2AR-T4L [2]
  λmax ± SD for β2AR-T4L: 455 ± 2 nm
  ligand-induced change of bimane fluorescence: qualitatively similar decrease in intensity and rightward shift in λmax
  Intensity at λmax Ligand/Intensity at λmax none: 0.824 ± 0.006

## CCCc1ccccc1OCC(O)CNC(C)C (centres unmarked) [[^3H]DHA, [^3H]-dihydroalprenolol]
wild-type β2AR [3]
  Bmax: 30.0 ± 0.5 pmol/mg
wild-type β2AR [4]
  Kd: 0.161 ± 0.012 nM
β2AR-T4L [5]
  affinity of β2AR-T4L relative to wild-type β2AR: wild-type affinity
β2AR-T4L [5]; β2AR-T4L, Sf9 membranes
  Bmax: 21.6 ± 0.5 pmol/mg
β2AR-T4L [5]; β2AR-T4L, Sf9 membranes, read-out: Kd ± SE
  Kd: 0.18 ± 0.016 nM

## CC(C)(C)NCC(O)c1ccc(O)c(CO)c1 (centres unmarked) [salbutamol]
β2AR-T4L [2]
  λmax ± SD for β2AR-T4L: 449 ± 1 nm
  ligand-induced change of bimane fluorescence: larger responses in β2AR-T4L than were observed in wild-type β2AR
  Intensity at λmax Ligand/Intensity at λmax none: 0.928 ± 0.009

## (−)-epinephrine
β2AR-T4L [1]
  affinity of β2AR-T4L relative to wild-type β2AR: two to three-fold higher
[6]
  lowering of β2AR affinity on mutation of Val114^3.33 to alanine: 300 fold
